Test results as given in paper PMC11844072, “Novel 5,6-dichlorobenzimidazole derivatives as dual BRAFWT and BRAFV600E inhibitors: design, synthesis, anti-cancer activity and molecular dynamics simulations” (BMC Chemistry, 2025).

Legend:
Assay in all cases: NCI 60 single concentration growth inhibition
Type in all cases: cell-based, human
[1] = test system: COLO 205; conditions: Homo sapiens, COLO 205, Colon cancer, read-out: GI%
Procedure, shortened: (§1)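 Cells are plated and left 24 h, and a time-zero plate is fixed at drug addition. Compound is then added for 48 h, the cells are fixed in cold TCA and stained with 0.4% SRB, and bound dye is solubilised in 10 mM Tris for reading at 515 nm.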

[2] = test system: SW-620; conditions: Homo sapiens, SW-620, Colon cancer, read-out: GI%
Procedure, shortened: as §1

[3] = test system: NCI-H522; conditions: Homo sapiens, NCI-H522, Non-small cell lung cancer, read-out: GI%
Procedure, shortened: as §1

[4] = test system: OVCAR-4; conditions: Homo sapiens, OVCAR-4, Ovarian cancer, read-out: GI%
Procedure, shortened: as §1

[5] = test system: HT29; conditions: Homo sapiens, HT-29, HT29, Colon cancer, read-out: GI%
Procedure, shortened: as §1

[6] = test system: TK-10; conditions: Homo sapiens, TK-10, Renal cancer, read-out: GI%
Procedure, shortened: as §1

[7] = test system: NCI/ADR-RES; conditions: Homo sapiens, Ovarian cancer, read-out: GI%
Procedure, shortened: as §1

[8] = test system: HCT-15; conditions: Homo sapiens, HCT-15, Colon cancer, read-out: GI%
Procedure, shortened: as §1

[9] = test system: LOX IMVIL; conditions: Homo sapiens, Melanoma, read-out: GI%
Procedure, shortened: as §1

[10] = test system: OVCAR-3; conditions: Homo sapiens, OVCAR-3, Ovarian cancer, read-out: GI%
Procedure, shortened: as §1

[11] = test system: NCI-H460; conditions: Homo sapiens, NCI-H460, Non-small cell lung cancer, read-out: GI%
Procedure, shortened: as §1

[12] = test system: K-562; conditions: Homo sapiens, K562, K-562, Leukemia, read-out: GI%
Procedure, shortened: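 Single-dose screen at 10 µM across the NCI-60 panel, then five concentrations (10-fold or ½ log dilutions) for selected compounds. Cells in RPMI 1640, 5% FBS, 2 mM L-glutamine, preincubated 24 h, then drug exposure 48 h at 37 °C. TCA fixation, SRB stain read at 515 nm; percent growth calculated against time-zero and untreated controls.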

[13] = test system: U251; conditions: Homo sapiens, U-251, U251, CNS cancer, read-out: GI%
Procedure, shortened: as §1

[14] = test system: HOP-92; conditions: Homo sapiens, HOP-92, Non-small cell lung cancer, read-out: GI%
Procedure, shortened: as §1

[15] = test system: DU-145; conditions: Homo sapiens, DU-145, Prostate cancer, read-out: GI%
Procedure, shortened: as §1

SMILES: COC(=O)COc1ccc(C=NNC(=O)Cn2c(-c3ccc(OC)cc3)nc3cc(Cl)c(Cl)cc32)cc1 [Compound 10h, Methyl-2-(4-((2-(2-(5,6-dichloro-2-(4-methoxyphenyl)-1H-benzo[d]imidazol-1-yl)acetyl)hydrazono)methyl)phenoxy)acetate]
- inhibition at 10 µM [1]: 51.5%
- inhibition at 10 µM [2]: < 5%
- inhibition at 10 µM [3]: 7.31%
- inhibition at 10 µM [4]: < 5%
- inhibition at 10 µM [5]: 93.4%
- inhibition at 10 µM [6]: < 5%
- inhibition at 10 µM [7]: < 5%
- inhibition at 10 µM [8]: 40.3%
- inhibition at 10 µM [9]: 39.5%
- inhibition at 10 µM [10]: 93%
- inhibition at 10 µM [11]: < 5%
- inhibition at 10 µM [12]: 31.4%
- inhibition at 10 µM [13]: 10.1%
- inhibition at 10 µM [14]: 7.02%
- inhibition at 10 µM [15]: 158%

SMILES: CCOC(=O)C(C)Oc1ccc(C=NNC(=O)Cn2c(-c3ccc(OC)cc3)nc3cc(Cl)c(Cl)cc32)cc1 (stereo not drawn) [Compound 10j, Ethyl-2-(4-((2-(2-(5,6-dichloro-2-(4-methoxyphenyl)-1H-benzo[d]imidazol-1-yl)acetyl) hydrazono)methyl)phenoxy)propanoate]
- inhibition at 10 µM [1]: 8.58%
- inhibition at 10 µM [2]: < 5%
- inhibition at 10 µM [3]: 32.6%
- inhibition at 10 µM [4]: 9.77%
- inhibition at 10 µM [5]: 39.2%
- inhibition at 10 µM [6]: < 5%
- inhibition at 10 µM [7]: < 5%
- inhibition at 10 µM [8]: 37.1%
- inhibition at 10 µM [9]: 18.4%
- inhibition at 10 µM [10]: < 5%
- inhibition at 10 µM [11]: < 5%
- inhibition at 10 µM [12]: 41.3%
- inhibition at 10 µM [13]: 5.26%
- inhibition at 10 µM [14]: 15.2%
- inhibition at 10 µM [15]: 85.2%

SMILES: COc1ccc(-c2nc3cc(Cl)c(Cl)cc3n2CC(=O)NN=Cc2ccc(OC)c(O)c2)cc1 [Compound 10k, 2-(5,6-Dichloro-2-(4-methoxyphenyl)-1H-benzo[d]imidazol-1-yl)-N'-(3-hydroxy-4-methoxybenzylidene)acetohydrazide]
- inhibition at 10 µM [1]: 22.1%
- inhibition at 10 µM [2]: 6.39%
- inhibition at 10 µM [3]: 37.8%
- inhibition at 10 µM [4]: 47.3%
- inhibition at 10 µM [5]: 30.2%
- inhibition at 10 µM [6]: 28%
- inhibition at 10 µM [7]: 40.1%
- inhibition at 10 µM [8]: 47.2%
- inhibition at 10 µM [9]: 38.4%
- inhibition at 10 µM [10]: 23.3%
- inhibition at 10 µM [11]: 24.8%
- inhibition at 10 µM [12]: 59.9%
- inhibition at 10 µM [13]: 38%
- inhibition at 10 µM [14]: 12%
- inhibition at 10 µM [15]: 26.4%

SMILES: COc1ccc(-c2nc3cc(Cl)c(Cl)cc3n2CC(=O)NN=Cc2ccc(O)c(OC)c2)cc1 [Compound 10l, 2-(5,6-Dichloro-2-(4-methoxyphenyl)-1H-benzo[d]imidazol-1-yl)-N'-(4-hydroxy-3-methoxybenzylidene)acetohydrazide]
- inhibition at 10 µM [1]: < 5%
- inhibition at 10 µM [2]: 9.29%
- inhibition at 10 µM [3]: 23.5%
- inhibition at 10 µM [4]: 52.9%
- inhibition at 10 µM [5]: 13%
- inhibition at 10 µM [6]: 16.2%
- inhibition at 10 µM [7]: 38.4%
- inhibition at 10 µM [8]: 51.5%
- inhibition at 10 µM [9]: 38.5%
- inhibition at 10 µM [10]: 28.7%
- inhibition at 10 µM [11]: 31%
- inhibition at 10 µM [12]: 58.1%
- inhibition at 10 µM [13]: 25.8%
- inhibition at 10 µM [14]: 40.1%
- inhibition at 10 µM [15]: 31.8%

SMILES: COC(=O)COc1cc(C=NNC(=O)Cn2c(-c3ccc(OC)cc3)nc3cc(Cl)c(Cl)cc32)ccc1OC [Compound 10o, Methyl-2-(5-((2-(2-(5,6-dichloro-2-(4-methoxyphenyl)-1H-benzo[d]imidazol-1-yl)acetyl)hydrazono)methyl)-2-methoxyphenoxy)acetate]
- inhibition at 10 µM [1]: < 5%
- inhibition at 10 µM [2]: < 5%
- inhibition at 10 µM [3]: 32.7%
- inhibition at 10 µM [4]: 18%
- inhibition at 10 µM [5]: 90.3%
- inhibition at 10 µM [6]: < 5%
- inhibition at 10 µM [7]: 11.1%
- inhibition at 10 µM [8]: 23.6%
- inhibition at 10 µM [9]: 36.4%
- inhibition at 10 µM [10]: < 5%
- inhibition at 10 µM [11]: < 5%
- inhibition at 10 µM [12]: 23.6%
- inhibition at 10 µM [13]: 6.53%
- inhibition at 10 µM [14]: 29.1%
- inhibition at 10 µM [15]: 155%

SMILES: COC(=O)COc1ccc(C=NNC(=O)Cn2c(-c3ccc(OC)cc3)nc3cc(Cl)c(Cl)cc32)cc1OC [Compound 10p, Methyl-2-(4-((2-(2-(5,6-dichloro-2-(4-methoxyphenyl)-1H-benzo[d]imidazol-1-yl)acetyl)hydrazono)methyl)-2-methoxyphenoxy)acetate]
- inhibition at 10 µM [1]: 34.9%
- inhibition at 10 µM [2]: < 5%
- inhibition at 10 µM [3]: 6.3%
- inhibition at 10 µM [4]: < 5%
- inhibition at 10 µM [5]: 116%
- inhibition at 10 µM [6]: 58%
- inhibition at 10 µM [7]: 5.42%
- inhibition at 10 µM [8]: 21.5%
- inhibition at 10 µM [9]: 25.2%
- inhibition at 10 µM [10]: < 5%
- inhibition at 10 µM [11]: < 5%
- inhibition at 10 µM [12]: 12.3%
- inhibition at 10 µM [13]: < 5%
- inhibition at 10 µM [14]: < 5%
- inhibition at 10 µM [15]: 143%
